In US7183415B2, “Quinoline compound” (Takeda Pharmaceutical Company Limited, priority 2001, dated 2007):

Compound	melting point
CCNC(=O)CCCC1CCN(Cc2cnc3c(C)c(NC(=O)c4ccc(-c5ccc(F)cc5)cc4)ccc3c2)CC1 [Example 209, N-[3-({4-[4-(ethylamino)-4-oxobutyl]-1-piperidinyl}methyl)-8-methyl-7-quinolinyl]-4′-fluoro[1,1′-biphenyl]-4-carboxamide]	217 to 220 °C
CCN(CC)C(=O)CCCC1CCN(Cc2cnc3c(C)c(NC(=O)c4ccc(-c5ccc(F)cc5)cc4)ccc3c2)CC1 [Example 210, N-[3-({4-[4-(diethylamino)-4-oxobutyl]-1-piperidinyl}methyl)-8-methyl-7-quinolinyl]-4′-fluoro[1,1′-biphenyl]-4-carboxamide]	145 to 146 °C
Cc1c(NC(=O)c2ccc(-c3ccc(F)cc3)cc2)ccc2cc(CN3CCC(CCCC(=O)N4CCCCC4)CC3)cnc12 [Example 211, 4′-fluoro-N-[8-methyl-3-({4-[4-oxo-4-(1-piperidinyl)butyl]-1-piperidinyl}methyl)-7-quinolinyl][1,1′-biphenyl]-4-carboxamide]	154 to 156 °C
Cc1cc2cc(CN3CCCC3)cnc2cc1NC(=O)c1ccc(-c2ccccc2F)cc1 [Example 213, 2′-fluoro-N-[6-methyl-3-(1-pyrrolidinylmethyl)-7-quinolinyl][1,1′-biphenyl]-4-carboxamide]	148 to 149 °C
Cc1cc2cc(CN3CCCC3)cnc2cc1NC(=O)c1ccc(-c2ccc(F)cc2F)cc1 [Example 214, 2′,4′-difluoro-N-[6-methyl-3-(1-pyrrolidinylmethyl)-7-quinolinyl][1,1′-biphenyl]-4-carboxamide]	158 to 160 °C
Cc1cc2cc(CN3CCCC3)cnc2cc1NC(=O)c1ccc(-c2ccc(C(F)(F)F)cc2)cc1 [Example 215, N-[6-methyl-3-(1-pyrrolidinylmethyl)-7-quinolinyl]-4′-(trifluoromethyl)[1,1′-biphenyl]-4-carboxamide]	216 to 219 °C
Cc1cc2cc(CN3CCCC3)cnc2cc1NC(=O)c1ccc(-c2ccc(F)c(F)c2)cc1 [Example 216, 3′,4′-difluoro-N-[6-methyl-3-(1-pyrrolidinylmethyl)-7-quinolinyl][1,1′-biphenyl]-4-carboxamide]	220 to 223 °C
CCc1ccc(-c2ccc(C(=O)Nc3cc4ncc(CN5CCCC5)cc4cc3C)cc2)cc1 [Example 217, 4′-ethyl-N-[6-methyl-3-(1-pyrrolidinylmethyl)-7-quinolinyl][1,1′-biphenyl]-4-carboxamide]	188 °C
CSc1ccc(-c2ccc(C(=O)Nc3cc4ncc(CN5CCCC5)cc4cc3C)cc2)cc1 [Example 219, N-[6-methyl-3-(1-pyrrolidinylmethyl)-7-quinolinyl]-4′-(methylthio)-[1,1′-biphenyl]-4-carboxamide]	198 °C
Cc1cc2cc(CN3CCCC3)cnc2cc1NC(=O)c1ccc(-c2ccc(Cl)s2)cc1 [Example 220, 4-(5-chlorothien-2-yl)-N-[6-methyl-3-(1-pyrrolidinylmethyl)-7-quinolinyl]benzamide]	216 °C
Cc1cc2cc(CN3CCCC3)cnc2cc1NC(=O)c1ccc(-c2ccc3ccccc3c2)cc1 [Example 222, N-[6-methyl-3-(1-pyrrolidinylmethyl)-7-quinolinyl]-4-(2-naphthyl)benzamide]	194 °C
Cc1cc2cc(CN3CCCC3)cnc2cc1NC(=O)c1ccc(-c2ccsc2)cc1 [Example 223, N-[6-methyl-3-(1-pyrrolidinylmethyl)-7-quinolinyl]-4-thien-3-ylbenzamide]	187 °C
Cc1cc2cc(CN3CCCC3)cnc2cc1NC(=O)c1ccc(-c2ccco2)cc1 [Example 224, 4-(2-furyl)-N-[6-methyl-3-(1-pyrrolidinylmethyl)-7-quinolinyl]benzamide]	154 °C
Cc1cc2cc(CN3CCCC3)cnc2cc1NC(=O)c1ccc(-c2ccccc2)cc1F [Example 226, 3-fluoro-N-[6-methyl-3-(1-pyrrolidinylmethyl)-7-quinolinyl][1,1′-biphenyl]-4-carboxamide]	180 to 183 °C
COc1ccc(-c2ccc(C(=O)Nc3cc4ncc(CN5CCCC5)cc4cc3C)c(F)c2)cc1 [Example 227, 3-fluoro-4′-methoxy-N-[6-methyl-3-(1-pyrrolidinylmethyl)-7-quinolinyl][1,1′-biphenyl]-4-carboxamide]	187 to 190 °C
Cc1cc2cc(CN3CCCC3)cnc2cc1NC(=O)c1ccc(-c2ccc(F)cc2)cc1F [Example 228, 3,4′-difluoro-N-[6-methyl-3-(1-pyrrolidinylmethyl)-7-quinolinyl][1,1′-biphenyl]-4-carboxamide]	174 to 177 °C
Cc1ccc(-c2ccc(C(=O)Nc3cc4ncc(CN5CCCC5)cc4cc3C)c(F)c2)cc1 [Example 229, 3-fluoro-4′-methyl-N-[6-methyl-3-(1-pyrrolidinylmethyl)-7-quinolinyl][1,1′-biphenyl]-4-carboxamide]	176 to 179 °C
Cc1cc2cc(CN3CCCC3)cnc2cc1NC(=O)c1ccc(-c2ccc(Cl)cc2)cc1F [Example 230, 4′-chloro-3-fluoro-N-[6-methyl-3-(1-pyrrolidinylmethyl)-7-quinolinyl][1,1′-biphenyl]-4-carboxamide]	195 to 198 °C
Cc1cc2cc(CN3CCCC3)cnc2cc1NC(=O)c1ccc(-c2ccccc2)c(F)c1 [Example 232, 2-fluoro-N-[6-methyl-3-(1-pyrrolidinylmethyl)-7-quinolinyl][1,1′-biphenyl]-4-carboxamide]	167 to 170 °C
Cc1cc2cc(CN3CCCC3)cnc2cc1NC(=O)c1ccc(-c2ccc(F)cc2)c(F)c1 [Example 233, 2,4′-difluoro-N-[6-methyl-3-(1-pyrrolidinylmethyl)-7-quinolinyl][1,1′-biphenyl]-4-carboxamide]	163 to 166 °C
Cc1ccc(-c2ccc(C(=O)Nc3cc4ncc(CN5CCCC5)cc4cc3C)cc2F)cc1 [Example 234, 2-fluoro-4′-methyl-N-[6-methyl-3-(1-pyrrolidinylmethyl)-7-quinolinyl][1,1′-biphenyl]-4-carboxamide]	175 to 178 °C
Cc1cc2cc(CN3CCCC3)cnc2cc1NC(=O)c1ccc(-c2ccc(Cl)cc2)c(F)c1 [Example 235, 4′-chloro-2-fluoro-N-[6-methyl-3-(1-pyrrolidinylmethyl)-7-quinolinyl][1,1′-biphenyl]-4-carboxamide]	181 to 185 °C

Other lines, results leading:

melting point	Compound
165 to 167 °C	COc1ccc(-c2ccc(C(=O)Nc3cc4ncc(CN5CCCC5)cc4cc3C)cc2F)cc1 [Example 236, 2-fluoro-4′-methoxy-N-[6-methyl-3-(1-pyrrolidinylmethyl)-7-quinolinyl][1,1′-biphenyl]-4-carboxamide]
204 °C	Cc1cc2cc(CN3CCCCCC3)cnc2cc1NC(=O)c1ccc(-c2ccc(Cl)cc2)cc1 [Example 238, N-[3-(1-azepanylmethyl)-6-methyl-7-quinolinyl]-4′-chloro[1,1′-biphenyl]-4-carboxamide]
207 °C	Cc1cc2cc(CN3CCCCCC3)cnc2cc1NC(=O)c1ccc(-c2cc3ccccc3o2)cc1 [Example 240, N-[3-(1-azepanylmethyl)-6-methyl-7-quinolinyl]-4-(1-benzofuran-2-yl)benzamide]
180 °C	Cc1cc2cc(CN3CCCCCC3)cnc2cc1NC(=O)c1ccc(-c2ccc(Cl)s2)cc1 [Example 241, N-[3-(1-azepanylmethyl)-6-methyl-7-quinolinyl]-4-(5-chlorothien-2-yl)benzamide]
209 °C	Cc1cc2cc(CN3CCCCCC3)cnc2cc1NC(=O)c1ccc(-c2ccc(Cl)cc2)cc1F [Example 243, N-[3-(1-azepanylmethyl)-6-methyl-7-quinolinyl]-4′-chloro-3-fluoro[1,1′-biphenyl]-4-carboxamide]
170 °C	Cc1cc2cc(CN3CCCCCC3)cnc2cc1NC(=O)c1ccc(-c2ccc(F)cc2)cc1F [Example 244, N-[3-(1-azepanylmethyl)-6-methyl-7-quinolinyl]-3,4′-difluoro[1,1′-biphenyl]-4-carboxamide]
168 °C	COc1ccc(-c2ccc(C(=O)Nc3cc4ncc(CN5CCCCCC5)cc4cc3C)c(F)c2)cc1 [Example 245, N-[3-(1-azepanylmethyl)-6-methyl-7-quinolinyl]-3-fluoro-4′-methoxy[1,1′-biphenyl]-4-carboxamide]
151 °C	Cc1cc2cc(CN3CCCCCC3)cnc2cc1NC(=O)c1ccc(-c2ccccc2)cc1F [Example 246, N-[3-(1-azepanylmethyl)-6-methyl-7-quinolinyl]-3-fluoro[1,1′-biphenyl]-4-carboxamide]
183 to 186 °C	Cc1cc2cc(CN(C)C)cnc2cc1NC(=O)c1ccc(-c2ccc(F)cc2)cc1 [Example 248, N-{3-[(dimethylamino)methyl]-6-methyl-7-quinolinyl}-4′-fluoro[1,1′-biphenyl]-4-carboxamide]
145 to 148 °C	CCN(CC)Cc1cnc2cc(NC(=O)c3ccc(-c4ccc(F)cc4)cc3)c(C)cc2c1 [Example 249, N-{3-[(diethylamino)methyl]-6-methyl-7-quinolinyl)-4′-fluoro[1,1′-biphenyl]-4-carboxamide]
185 to 188 °C	Cc1cc2cc(CN3CCCCC3)cnc2cc1NC(=O)c1ccc(-c2ccc(F)cc2)cc1 [Example 250, 4′-fluoro-N-[6-methyl-3-(1-piperidinylmethyl)-7-quinolinyl][1,1′-biphenyl]-4-carboxamide]
170 to 174 °C	Cc1cc2cc(CN3CCCCCC3)cnc2cc1NC(=O)c1ccc(-c2ccc(F)cc2)cc1 [Example 251, N-[3-(1-azepanylmethyl)-6-methyl-7-quinolinyl]-4′-fluoro[1,1′-biphenyl]-4-carboxamide]
153 to 158 °C	Cc1cc2cc(CN3CCOCC3)cnc2cc1NC(=O)c1ccc(-c2ccc(F)cc2)cc1 [Example 252, 4′-fluoro-N-[6-methyl-3-(4-morpholinylmethyl)-7-quinolinyl][1,1′-biphenyl]-4-carboxamide]
223 to 227 °C	Cc1cc2cc(CN3CCC(CCC(N)=O)CC3)cnc2cc1NC(=O)c1ccc(-c2ccc(F)cc2)cc1 [Example 253, N-(3-{[4-(3-amino-3-oxopropyl)-1-piperidinyl]methyl}-6-methyl-7-quinolinyl)-4′-fluoro[1,1′-biphenyl]-4-carboxamide]
